Test results reported in patent US9187463B2, “Polymorph form of 4-{[4-({[4-(2,2,2-trifluoroethoxy)-1,2-benzisoxazol-3-yl]oxy}methyl)piperidin-1-yl]methyl}-tetrahydro-2H-pyran-4-carboxylic acid” (RAQUALIA PHARMA INC., priority 2011, dated 2015).

Key:
Type in all cases: physicochemical
[1] = Hygroscopicity study by dynamic vapor sorption (DVS) analysis; conditions: for weight gain %: 25° C., DVS sorption
Procedure: Hygroscopicity study is performed using Surface Measurement Systems DVS-1. The sample is placed on a microbalance in the instrument. After the sample is dried under 0% humidity environment at 25° C., relative humidity is raised to 95% RH at 5% RH increments, maintaining the sample at each step until equilibration had been attained. After completion of the sorption cycle, the sample is dried to 10% RH using the same procedure (desorption cycle). The weight change during the sorption/desorption cycle is monitored, allowing for the hygroscopic nature of the sample to be determined.
In the hygroscopicity study by dynamic vapor sorption (DVS) analysis, Polymorph Form I absorbs less than 0.2 wt % under 90% relative humidity (RH) at 25° C. On the other hand, the white solid disclosed in the prior art WO2006/090224 absorbs 1.2 wt % and 5.5 wt % of water under 85% RH and 90% RH, respectively.

[2] = Solid-state stability study (temperature/humidity chamber, Xenon lamp)
Procedure: Solid-state stability study is performed using Nagano Science Constant temperature/humidity control chamber LH-20-11M, LH-21-11M, LTL-200D3CJ-14 or LTX-01. The sample is placed in the chamber and exposed under 25° C./60% RH, 40° C./75% RH and/or irradiated with a Xenon lamp. The crystalline form, thermal behavior, purity and/or weight change of the resultant sample after the exposure or irradiation are evaluated by XRPD, TG/DTA or DSC, HPLC, microbalance analysis, respectively.

[3] = Thermal polymorph transformation monitored by variable-temperature PXRD; conditions: heating
Procedure: The PXRD analyses are performed using a Rigaku RINT-TTR X-ray powder diffractometer using Cu-Kα radiation. The samples can also be measured under the high/low temperature condition by using the attachment of the variant-temperature sample holder. The instrument is equipped with a fine focus X-ray tube. The tube voltage and amperage are set to 50 kV and 300 mA respectively. The divergence and scattering slits are set at 0.25° and the receiving slit is set at 0.15 mm. Diffracted radiation is detected by a NaI scintillation detector. A theta-two theta continuous scan at 4°/min (step size 0.02°) from 3 to 40 2-Theta° is used. A silicon standard is analyzed to check the machine alignment. Data are collected and analyzed using-Rigaku X-ray system. Samples are prepared for analysis by placing them in an aluminum sample holder that is horizontally rotated at 60 rpm during data acquisition.
Polymorph Form I begins to transform to Polymorph Form II at around 110° C. […]

[4] = 90% relative humidity (RH) at 25° C.

Row | SMILES | weight gain % ([1]; 75% RH) | weight gain % ([1]; 80% RH) | weight gain % ([1]; 85% RH) | weight gain % ([1]; 90% RH) | water absorbed (DVS) [1, 4] | stability compared with white solid of WO2006/090224 [2] | temperature at which transformation to Polymorph Form II begins [3] | water absorbed (DVS) ([1]; 85% RH)
1 | O=C(O)C1(CN2CCC(COc3noc4cccc(OCC(F)(F)F)c34)CC2)CCOCC1 [Polymorph Form I, 4-{[4-({[4-(2,2,2-trifluoroethoxy)-1,2-benzisoxazol-3-yl]oxy}methyl)piperidin-1-yl]methyl}-tetrahydro-2H-pyran-4-carboxylic acid] | 0.15% | 0.15% | 0.15% | 0.18% | less than 0.2 wt % | more stable than white solid | around 110 °C | 
2 | O=C(O)C1(CN2CCC(COc3noc4cccc(OCC(F)(F)F)c34)CC2)CCOCC1 [Polymorph Form II, 4-{[4-({[4-(2,2,2-trifluoroethoxy)-1,2-benzisoxazol-3-yl]oxy}methyl)piperidin-1-yl]methyl}-tetrahydro-2H-pyran-4-carboxylic acid] |  |  |  |  |  | more stable than white solid |  | 
3 | O=C(O)C1(CN2CCC(COc3noc4cccc(OCC(F)(F)F)c34)CC2)CCOCC1 [White solid disclosed in the prior art WO2006/090224] [4-{[4-({[4-(2,2,2-Trifluoroethoxy)-1,2-benzisoxazol-3-yl]oxy}methyl)piperidin-1-yl]methyl}-tetrahydro-2H-pyran-4-carboxylic acid] | 0.33% | 0.35% | 1.2% | 5.5% | 5.5 wt % |  |  | 1.2 wt %
